Results reported in the CheMixHub viscosity set.
± gives the uncertainty stated by the source.

Assay: xn = mol fraction of the nth substance listed

CCCC1c2cc(c(O)c(/N=N/c3cccc(C(=O)O)c3)c2O)C(CCC)c2cc(c(O)c(/N=N/c3cccc(C(=O)O)c3)c2O)C(CCC)c2cc(c(O)c(/N=N/c3cccc(C(=O)O)c3)c2O)C(CCC)c2cc1c(O)c(/N=N/c1cccc(C(=O)O)c1)c2O (stereo unspecified) + CS(C)=O
viscosity [mPa·s], 101 kPa
Conditions	293.15 K	298.15 K	303.15 K	308.15 K	313.15 K
x1 = 0.000457	2.314 ± 0.02	2.072 ± 0.018	1.87 ± 0.017	1.698 ± 0.016	1.555 ± 0.015
x1 = 0.000544	2.345 ± 0.02	2.1 ± 0.018	1.893 ± 0.017	1.724 ± 0.016	1.579 ± 0.015
x1 = 0.000616	2.369 ± 0.02	2.124 ± 0.018	1.907 ± 0.017	1.737 ± 0.016	1.597 ± 0.015
x1 = 0.000708	2.391 ± 0.02	2.143 ± 0.019	1.931 ± 0.017	1.756 ± 0.016	1.607 ± 0.016
x1 = 0.0008532	2.425 ± 0.02	2.167 ± 0.019	1.952 ± 0.017	1.779 ± 0.016	1.625 ± 0.016
x1 = 0.001009	2.471 ± 0.021	2.209 ± 0.019	1.991 ± 0.018	1.812 ± 0.017	1.651 ± 0.016
x1 = 0.001122	2.52 ± 0.021	2.25 ± 0.019	2.024 ± 0.018	1.838 ± 0.017	1.68 ± 0.016
x1 = 0.001351	2.556 ± 0.021	2.284 ± 0.02	2.045 ± 0.018	1.858 ± 0.017	1.695 ± 0.016
x1 = 0.001491	2.633 ± 0.022	2.346 ± 0.02	2.104 ± 0.018	1.905 ± 0.017	1.739 ± 0.016
x1 = 0.001636	2.678 ± 0.022	2.38 ± 0.02	2.138 ± 0.019	1.934 ± 0.017	1.764 ± 0.016
x1 = 0.001789	2.724 ± 0.022	2.43 ± 0.021	2.176 ± 0.019	1.967 ± 0.018	1.79 ± 0.017

CCCCOC(C)=O + CS(C)=O
viscosity [mPa·s], 101.33 kPa
Conditions	x2 = 0.074	x2 = 0.1418	x2 = 0.2774	x2 = 0.46	x2 = 0.5396	x2 = 0.6383	x2 = 0.7272	x2 = 0.809	x2 = 0.9021	x2 = 0.9703
293.15 K	0.774 ± 0.026	0.789 ± 0.026	0.868 ± 0.028	1.011 ± 0.032	1.098 ± 0.035	1.211 ± 0.038	1.363 ± 0.042	1.527 ± 0.047	1.791 ± 0.054	2.063 ± 0.062
303.15 K	0.678 ± 0.023	0.692 ± 0.023	0.752 ± 0.025	0.879 ± 0.029	0.931 ± 0.03	1.032 ± 0.033	1.146 ± 0.036	1.28 ± 0.04	1.488 ± 0.046	1.697 ± 0.052
313.15 K	0.592 ± 0.021	0.606 ± 0.021	0.662 ± 0.023	0.766 ± 0.025	0.809 ± 0.027	0.889 ± 0.029	0.983 ± 0.032	1.117 ± 0.035	1.258 ± 0.039	1.423 ± 0.044

C=COC(C)=O + Cc1ccc(C)cc1
viscosity [mPa·s], 101 kPa
Conditions	x1 = 0.1501	x1 = 0.2469	x1 = 0.3618	x1 = 0.4592	x1 = 0.5631	x1 = 0.67	x1 = 0.7587	x1 = 0.8601	x1 = 0.9478
303.15 K	0.537 ± 0.007	0.518 ± 0.007	0.497 ± 0.006	0.48 ± 0.006	0.462 ± 0.006	0.445 ± 0.006	0.435 ± 0.006	0.42 ± 0.005	0.403 ± 0.005
313.15 K	0.486 ± 0.006	0.467 ± 0.006	0.445 ± 0.006	0.428 ± 0.006	0.41 ± 0.005	0.393 ± 0.005	–	–	0.353 ± 0.005
